Where two headings read alike, the source gives them in different places. Some results are limits rather than exact numbers.

Data set [1] concerns CYP3A. The data set can be described thus: CYP3A catalytic activity (erythromycin N-demethylation) in possum liver microsomes. Particulars: for Percent control catalytic activity at estimated IC50: compounds without reported IC50 at 1 µM.
The test system of data set [2] is UGT2B (heading: UGT2B4). The data set can be described thus: p-nitrophenol glucuronidation activity in possum liver microsomes. The data set is classed as biochemical, possum (Trichosurus vulpecula). Particulars: possum (Trichosurus vulpecula), pH 7.4, compound at estimated IC50, read-out: % of control (UGT2B4 catalytic activity at IC50).
In data set [3] the test system is UGT2B. Described as above. The format is biochemical, possum (Trichosurus vulpecula). The following applies: for p-nitrophenol glucuronidation (UGT2B) activity, % of the control: at estimated IC50 and 2-fold IC50 values.
Data set [4] deals with UGT2B. The following applies: avian.
For data set [5], the system named is CYP3A. The data set can be described thus: CYP3A catalytic activity (erythromycin N-demethylation) in mouse liver microsomes. Particulars: for Percent control catalytic activity at estimated IC50: compounds without reported IC50 at 1 µM; for CYP3A catalytic activity, % of the control: at both estimated IC50 and 2-fold IC50 values (ketoconazole 2.5 and 5 µM).
Data set [6] concerns CYP3A. Particulars: avian.
The test system of data set [7] is UGT2B (heading: UGT2B4). The data set can be described thus: in vitro. Particulars: avian (mallards and a swan), pH 7.4.
The test system of data set [8] is testosterone metabolism. More on the design: method as in PMID 19336903. Particulars: pooled human liver microsomes; cited from earlier work.
For data set [9], the system named is UGT2B. The data set can be described thus: p-nitrophenol glucuronidation activity in mouse liver microsomes.
For data set [10], the system named is UGT2B (heading: UGT2B4). In words: in vitro. The following applies: BALB/c, mouse, pH 7.4.
The test system of data set [11] is CYP3A. The data set can be described thus: CYP3A catalytic activity (erythromycin N-demethylation) in pooled human liver microsomes. Particulars: for CYP3A catalytic activity, % of the control: at both estimated IC50 and 2-fold IC50 values (ketoconazole 2.5 and 5 µM).
Data set [12] has as its system fathead minnows (Pimephales promelas). More on the design: method as in PMID 17517636. Particulars: EE2 5–6 ng/L; cited from earlier work.
The test system of data set [13] is mice. The following applies: EE2 5 µg/kg/day; cited from earlier work.
Data set [14] deals with UGT2B. In words: p-nitrophenol glucuronidation activity in pooled human liver microsomes.
Data set [15] deals with CYP3A. In words: CYP3A catalytic activity with midazolam and triazolam as substrates. Particulars: erythromycin vs midazolam and triazolam.
Data set [16] deals with cineole metabolism in wild possum liver microsomes. More on the design: method as in PMID 12593759. The following applies: 5 µM ketoconazole; cited from earlier work.
For data set [17], the system named is erythromycin N-demethylation. More on the design: method as in PMID 15342469. The following applies: pooled human liver microsomes; read-out: concentration reducing erythromycin N-demethylation by ~50% of the control; cited from earlier work.
[18] abbreviates: possum liver microsomes, initial screen n=1.
[19] abbreviates: possum, compound at estimated 2-fold IC50 (5 µM where none reported).
Where [20] appears, read: compound at estimated 2-fold IC50.
The mark [21] stands for this setting: mouse liver microsomes, initial screen n=1.
Setting [22] is: mouse, compound at estimated 2-fold IC50 (5 µM where none reported).
[23] abbreviates: compound at estimated 2-fold IC50 (5 µM where none reported).
The mark [24] stands for this setting: mouse, compound at estimated 2-fold IC50.

In the case of `O=c1cc(-c2ccccc2)oc2cc(O)ccc12` [7-Hydroxyflavone], the “Percent control catalytic activity at estimated IC50” value in data set [1] (setting [18]) is 81 percent control; in [5] (setting [21]), 97 percent control. Also, the “Percent control catalytic activity at estimated 2-fold IC50” value was 78 percent control in data set [1] (possum liver microsomes, initial screen n=1, compounds without reported IC50 at 5 µM) and 97 percent control in data set [5] (mouse liver microsomes, initial screen n=1, compounds without reported IC50 at 5 µM). Moreover, the “CYP3A catalytic activity, % of the control” value in data set [1] (possum, at both estimated IC50 and 2-fold IC50 values (or 1 and 5 µM)) was > 83 % of the control; in data set [5] (mouse) it was > 83 % of the control; in data set [6] (at both estimated IC50 and 2-fold IC50 values (or 1 and 5 µM)), > 83 % of the control; in data set [11], > 83 % of the control. Further, the “% of control (catalytic activity at 2-fold IC50)” value in [1] (setting [19]) is 95 % of control; in [5] (setting [22]), 90 % of control; in data set [6] (setting [23]) it was 103 % of control; in [11] (setting [23]), 95 % of control. In addition, the “Catalytic activity at 2-fold IC50” value in [1] (setting [19]) is 0.38 ± 0.08 nmol/mg/min; in data set [5] (setting [22]) it was 0.40 ± 0.04 nmol/mg/min; in data set [6] (setting [23]), 0.42 ± 0.07 nmol/mg/min; in data set [11] (setting [23]) it was 0.61 nmol/mg/min. For the same compound, the “reduced catalytic activity of possum CYP3A, % of the control” value in data set [1] (possum, mainly at 5 µM or an estimated 2-fold IC50, not significantly different) is recorded as ~ 35 % of the control. Besides, the activity at 30 min in [2] was 100%; in data set [7] it was 150%. Also, the “% of control (UGT2B4 catalytic activity at 2-fold IC50)” value is 101 % of control in [3] (setting [20]), 92 % of control in data set [4] (setting [20]) and 101 % of control in data set [9] (setting [24]). Further, the “UGT2B4 catalytic activity at 2-fold IC50” value in [3] (setting [20]) was 3.92 ± 0.02 µmol/mg/min; in data set [4] (setting [20]), 0.38 ± 0.12 µmol/mg/min; in data set [9] (setting [24]), 2.55 ± 0.18 µmol/mg/min. In data set [8], the IC50 was greater than 100000 nM. For the same compound, the activity in data set [10] was 100%.

For the compound `C#C[C@]1(O)CC[C@H]2[C@@H]3CCc4cc(O)ccc4[C@H]3CC[C@@]21C` [EE2, ethinylestradiol], in [12], the “effect of exposure on fish” value is reported as “feminisation of male fathead minnows”. Further, in data set [13], the “effect of developmental exposure on behaviour” value is listed as “behavioural masculinisation”.

On to `CC(=O)N1CCN(c2ccc(OCC3COC(Cn4ccnc4)(c4ccc(Cl)cc4Cl)O3)cc2)CC1` (stereo not drawn) [Ketoconazole], for which the “Percent control catalytic activity at estimated IC50” value is 76 percent control in data set [1] (setting [18]) and 78 percent control in [5] (setting [21]). Further, in data set [1] (possum, ketoconazole 5 µM, not statistically significant), the “reduction of catalytic activity of possum CYP3A compared to the control” value is “approximately 27%”. The “p-nitrophenol glucuronidation (UGT2B) activity, % of the control” value is “did not significantly reduce UGT2B activity to less than 50% of the control” in data set [3]; > 65 % of the control in data set [3] (listed as ketoconazole); “did not significantly reduce UGT2B activity to less than 50% of the control” in data set [14]; “did not significantly reduce UGT2B activity to less than 50% of the control” in data set [4] (at estimated IC50 and 2-fold IC50 values); “did not significantly reduce UGT2B activity to less than 50% of the control” in [9]. Besides, the “change in the inhibition of the CYP3A enzyme due to substrate choice (present study vs reported study)” value in data set [15] is recorded as greater than 100 fold. The “formation of all hydroxycineole metabolites (9-, 3-, 7-hydroxycineole), % of the control” value in data set [16] was “approximately 25 % of the control”. In addition, the “CYP3A catalytic activity, % of the control” value in data set [5] (mouse) is on record as < 50 % of the control; in data set [11], 80 % of the control. The IC50 in data set [17] was 70 nM.

These data come from paper PMC10253456, “Investigating the Contribution of Major Drug-Metabolising Enzymes to Possum-Specific Fertility Control” (International Journal of Molecular Sciences, 2023).
